Measurements: patent publication US7214668B2, “Phosphonic acid based prodrugs of PMEA and its analogues” (Metabasis Therapeutics, Inc., priority 2002, dated 2007)
Read-outs that look alike come from different tables or passages of the source. Values belong to the compound of their own block, whether it stands above or below them.

How the values were obtained:
[1] = PMEApp accumulation in liver organ following oral administration to normal fasted rats; assay type: in vivo, rat; details: 30 mg/kg PMEA equivalents p.o.
Experimental: PMEA prodrugs were tested in vivo to identify prodrugs with suitable oral bioavailability and favorable intrahepatic activation rates.
Following oral administration of 30-mg/kg prodrug (PMEA equivalents) to normal, fasted rats, liver organ samples were freeze-clamped at 8 hr. […] The retention time of PMEApp was 18.6 minutes.

[2] = test system: freshly isolated rat hepatocytes; details: 250 μM prodrug
Experimental: PMEA prodrugs were tested.
Hepatocytes were prepared from fed Sprague-Dawley rats (250–300 g) according to the procedure of Berry and Friend (Berry, M. N. Friend, D. S., J. Cell Biol. 43:506–520 (1969)) as modified by Groen (Groen, A. K. et al., Eur. J. Biochem 122:87–93 (1982)). Hepatocytes (60 mg/ml wet weight, >85% trypan blue viability) were incubated in 2 ml of krebs-bicarbonate buffer containing 20 mM glucose, and 1 mg/ml BSA for 4 hours in the presence of 250 μM PMEA prodrugs (from 25 mM stock solutions of prodrugs in methanol). At appropriate time points throughout the incubation (0, 1, 2, 4 hours), 400-μl aliquots of the cell suspension were taken and centrifuged through a silicon/mineral oil layer into 10% perchloric acid to extract intracellular nucleotides. The acidic cell extracts were neutralized with 0.3 volumes of 3M KOH/3M […] before evaluating PMEApp levels by ion exchange HPLC (Hewlett Packard 1050) using a Whatman Partisphere SAX (5 μm, 4.6×125 mm) column. Samples were loaded onto the column in 0.3M-ammonium phosphate buffer pH 3.5 and eluted from the column with a gradient to 0.8 M ammonium phosphate pH 3.5.

[3] = test system: liver microsomes isolated from rats induced with dexamethasone; assay: In vitro activation of PMEA prodrug analogues to PMEA by rat liver microsomes
Experimental: PMEA prodrug analogues were tested for activation to PMEA in reactions catalyzed by the microsomal fraction of rat liver.
Prodrugs (25 and 250 μM) were tested for activation by liver microsomes isolated from rats induced with dexamethasone to enhance CYP3A4 activity (Human Biologics Inc., Phoenix Ariz.). Reactions were conducted in 0.1 M KH2PO4, pH 7.4, in the presence of 2 mM NADPH and liver microsomes (1 mg/mL). Reaction mixtures were incubated for 5 minutes in an Eppendorf Thermomixer 5436 (37° C., speed 6). Reactions were terminated by the addition of 1.5 volumes of methanol. The resulting extracts were clarified by centrifugation at 14,000 rpm in an Eppendorf microfuge (20 minutes). The supernatants (200 μL) were evaporated under vacuum and heat to dryness before resuspending in 80 μL of buffer A (see below) for PMEA analysis. Spiked standards of 9-[2-(phosophonomethoxy)ethyl]adenine, (PMEA, lot 980397, Metabasis Therapeutics) were prepared in the same reaction mixture and processed in an identical fashion. After resuspension, samples were analyzed by reverse phase HPLC (Altima C-18 column) with use of an ion-pairing buffer (Buffer A) consisting of 10 mM ammonium phosphate, 2.5 mM octyltriethylammonium phosphate, pH 5.5. Samples were loaded in Buffer A and eluted with a methanol gradient from 40% to 80% over 20 minutes. Detection was at 265 nm.

[4] = 30 mg/kg PMEA equivalents, in water, normal male rats
Experimental: Compound 56 was solubilized in water for intravenous and oral administration. […] Liver organ concentrations of PMEApp were determined as indicated in Example I.

[5] = Solubility and stability of the mesylate salt of Compound 54 in water; assay type: physicochemical
Experimental: Ten Compound 54 salt forms (L-tartartric, succinic, maleic, L-malic, D-malic, citric, hydrochloric, phosphoric, nitric, methane-sulfonic acids) were evaluated to identify the best salt form to selectively crystallize out the cis-diastereomer from cis:trans mixtures following the prodrug coupling procedure. Solubility and stability of the mesylate salt of Compound 54 were analyzed in water.

human liver microsomes = assay: Cis versus trans prodrug activation in human liver microsomes; assay type: in vitro ADME; details: 100 μM prodrug, 2 mg/mL human liver microsomes; for Activation Rate: 5 minutes, 37° C.
Description: The activation rates of cis (Compound 56, lot #20010093) and trans (9-{2-[2,4-trans-(S)-(+)-4-(3-chlorophenyl)-2-oxo-1,3,2-dioxaphosphorinan-2-yl]methoxyethyl} adenine, (lot 20010195) PMEA prodrugs was compared in order to establish which prodrug diastereomer is activated the most efficiently in human liver microsomes.
Human liver microsomes (mixed pool) were purchased from In Vitro Technologies (Lot RQX). […] Reactions were quenched with 60% methanol.

[6] = test system: freshly isolated rat hepatocytes; assay: PMEApp accumulation in rat hepatocytes following incubation with Compound 56 and PMEA (25 μM); assay type: cell-based; details: 0–4 h, rat hepatocytes 20 mg/ml
Experimental: Hepatocyte pellets were immediately sonicated in 300 μl of ice-cold acetonitrile followed by the addition of 200 μl of water. Hepatocyte extracts were centrifuged for 20 minutes in an Eppendorf centrifuge at 4° C. and supernatants from the extracts were transferred to a fresh tube. Hepatocyte extract supernatants were evaporated to dryness under vacuum and then resuspended in 200 μl of water. PMEApp concentrations were quantified by LC-MS/MS (negative-ion mode) based on authentic PMEApp standards spiked into hepatocyte extracts. Ten microliter samples were loaded onto a Phenomenex Luna […] C8 column (50×2 mm) in 20 mM N-N-dimethylhexylamine, 10 mM propionic acid and eluted with a gradient of methanol from 20–64% over 5.5 minutes. An API 2000 triple quadrupole mass spectrometer fitted with a pneumatically-assisted electrospray interface was used to quantify the negative ion (PO3^−) using a Multiple Reaction Monitoring (MRM) technique.

[7] = oral administration, species not stated; cited from earlier work
[8] = cited from earlier work
[9] = humans; i.v. dose; cited from earlier work
[10] = cited from earlier work; remark: listed apart in the source
[11] = Tissue distribution of PMEA equivalents after oral tritiated Compound 4 and bis POM PMEA in rats; details: p.o.
Experimental: Total tritium counts were analyzed in solubilized samples of liver organ, kidney, plasma, urine, red blood cells, small intestine, as well as small intestine contents and feces obtained at various time points over 24 hours. Liver organ specificity was assessed by comparison of the temporal profiles of total tritium in liver organ versus kidney, small intestine, plasma, and red blood cells. Metabolite profiles in perchloric acid extracts of liver organ, kidney, small intestine, feces and urine were analyzed by HPLC.

[12] = Plasma and urine PMEA following oral Compound 4 and bis POM PMEA in rats; assay type: in vivo, rat; details: 30 mg/kg PMEA equivalents p.o.
Experimental: PMEA levels (0–12 h) were quantified in plasma by fluorescence HPLC following chloroacetaldehyde derivatization. PMEA levels in urine were quantified 48 hours after treatment.
Plasma drug levels: PMEA was determined in plasma by a modification of the procedure described in the literature (Shaw J P, Louie M S, Krishnamurthy V V, Arimilli M N, Jones R J, Bidgood A M, Lee W A, & Cundy K C, Drug Metabolism and Disposition, 25:362–366 (1997)). Plasma (100 μL) samples were extracted with 2 volumes of 0.1% TFA in acetonitrile. Following centrifugation to remove the precipitate, the supernatant was evaporated to dryness. The dried plasma was reconstituted with 200 μL of the derivatization cocktail consisting of 0.34% chloroacetaldehyde in 100 mM sodium acetate pH 4.5 and incubated at 95° C. for 40 min. The samples were evaporated to dryness and reconstituted with mobile phase for analysis by HPLC. The derivatized PMEA was analyzed by an HPLC system (Hewlett Packard 1090) consisting of a Beckman Ultrasphere ODS 4.6×150 mm (5 μm) column developed with a 20-min gradient of 0–30% acetonitrile in 20 mM potassium phosphate pH 6.2. Fluorescence was monitored at an excitation and emission wavelength of 240 and 420 nm, respectively. The column temperature was 40° C. and the flow rate was 1.5 mL/min. The derivatized PMEA was detected and quantified by comparison to an authentic standard prepared in plasma and eluted at approximately 6 minutes. The limit of quantitation of PMEA, was 0.25 μg/mL.
Urinary excretion studies: The percent excretion of PMEA in urine was assessed by a modification of a previously described procedure (Russell J W, Marrero D, Whiterock V J, & Klunk L J, J Chromatog, 572:321–326 (1991)). Aliquots (0.25–0.5 mL) of urine samples and spiked standards were incubated with an equal volume of 17% (v/v) of 50% chloroacetaldehyde in 100 mM sodium acetate pH 4.5 at 50° C. for 4 hrs. Following centrifugation, the supernatant was analyzed by the HPLC method described in the previous section.

[13] = 30 mg/kg PMEA equivalents p.o., rats
Experimental: Intact prodrug and the metabolite 9-[2-(phosophonomethoxy)ethyl]adenine (PMEA) and the respective mono-acids were measured in the plasma at 0 (predose), 0.33, 1, 3, 5, 8, and 12 hrs post dose by HPLC using fluorescence detection. The pharmacokinetic parameters were calculated based on noncompartmental analysis of the concentration-time profile.

[14] = cited from earlier work; remark: listed apart in the source
[15] = cited from earlier work; remark: listed apart in the source
[16] = dog, after bis POM PMEA, Cundy et al. 1997; cited from earlier work
[17] = 25 μM prodrug, 1 mg/mL microsomes, 2 mM NADPH, 5 minutes, 37° C., PMEA formation
[18] = 250 μM prodrug, 1 mg/mL microsomes, 2 mM NADPH, 5 minutes, 37° C., PMEA formation

SMILES: Nc1ncnc2c1ncn2CCOCP1(=O)OCCC(c2ccccc2)O1 (mixture of isomers) [Compound 1]
Rats, PMEApp levels in liver organ @ 8 hr., 30 mg/kg, p.o. [1]: 0.6 nmol/g

SMILES: Nc1ncnc2c1ncn2CCOCP1(=O)OCCC(c2ccncc2)O1 (mixture of isomers) [Compound 2]
Rat Hepatocytes, PMEApp formation, 250 μM, AUC 0–4 h [2]: 106.8 nmol·h/g

SMILES: Nc1ncnc2c1ncn2CCOCP1(=O)OCCC(c2cc(Cl)cc(Cl)c2)O1 (mixture of isomers) [Compound 3]
Activation Rate, Dex. Rat Liver Microsomes, 25 μM [3]: 2.2 nmol/min/mg | Activation Rate, Dex. Rat Liver Microsomes, 250 μM [3]: 1.9 nmol/min/mg

Rats, PMEApp levels in liver organ @ 8 hr., 30 mg/kg, p.o. [1]: 2.6 nmol/g | Activation Rate, Dex. Rat Liver Microsomes, 25 μM [3, 17]: 1.3 nmol/min/mg | Activation Rate, Dex. Rat Liver Microsomes, 250 μM [3, 18]: 1.5 nmol/min/mg
SMILES: Nc1ncnc2c1ncn2CCOCP1(=O)OCCC(c2ccc(Br)c(F)c2)O1 (mixture of isomers) [Compound 5]

SMILES: Nc1ncnc2c1ncn2CCOCP1(=O)OCCC(c2cccc(Br)c2)O1 (mixture of isomers) [Compound 7]
Rats, PMEApp levels in liver organ @ 8 hr., 30 mg/kg, p.o. [1]: 2.2 nmol/g

Rats, PMEApp levels in liver organ @ 8 hr., 30 mg/kg, p.o. [1]: 2.2 nmol/g
SMILES: Nc1ncnc2c1ncn2CCOCP1(=O)OCCC(c2cc(F)cc(F)c2)O1 (mixture of isomers) [Compound 10]

Activation Rate, Dex. Rat Liver Microsomes, 25 μM [3, 17]: <0.5 nmol/min/mg | Activation Rate, Dex. Rat Liver Microsomes, 250 μM [3, 18]: 0.6 nmol/min/mg
SMILES: Cc1ccc(C2CCOP(=O)(COCCn3cnc4c(N)ncnc43)O2)cn1 (mixture of isomers) [Compound 18]

SMILES: CS(=O)(=O)O.Nc1ncnc2c1ncn2CCOCP1(=O)OCC[C@@H](c2cccc(Cl)c2)O1 (stereo in doubt) [Compound 56, 9-{2-[2,4-cis-(S)-(+)-4-(3′-Chlorophenyl)-2-oxo-1,3,2-dioxaphosphorinan-2-yl]metboxyethyl}adenine Methanesulfonate]
OBAV (ratio of AUC of liver organ PMEApp oral vs i.v.) [4]: 42% | Decomposition of dosing solutions ([5]; 30 and 300 mg/ml in water, 5 days, room temperature): < 10% | Solubility in water ([5]; water): > 300 mg/mL | Activation Rate (human liver microsomes): 0.45 ± 0.01 nmol/mg/min

SMILES: Nc1ncnc2c1ncn2CCOCP1(=O)OCC[C@@H](c2cccc(Cl)c2)O1 (stereo in doubt) [trans-, 9-{2-[2,4-trans-(S)-(+)-4-(3-chlorophenyl)-2-oxo-1,3,2-dioxaphosphorinan-2-yl]methoxyethyl} adenine]
Activation (below measureable detection limit, text) (human liver microsomes): < 0.05 nmol/min/mg | Activation Rate (human liver microsomes): ≦0.05 nmol/mg/min.

SMILES: Nc1ncnc2c1ncn2CCOCP1(=O)OCCC(c2ccccc2Br)O1 (centres unmarked) [Compound 6]
Rats, PMEApp levels in liver organ @ 8 hr., 30 mg/kg, p.o. [1]: 7.1 nmol/g

SMILES: Nc1ncnc2c1ncn2CCOCP(=O)(O)O [PMEA, 9-(2-phosphonylmethoxyethyl)adenine]
AUC0-4h PMEApp levels in hepatocytes [6]: 84 nmol·h/g | Oral bioavailability [7]: < 10% | Oral bioavailability in monkeys [8]: < 1% | Dose excreted renally / renally cleared [9]: 98% | Oral bioavailability in humans [10]: < 12%

SMILES: CC(C)(C)C(=O)OCOP(=O)(COCCn1cnc2c(N)ncnc21)OCOC(=O)C(C)(C)C [bis POM PMEA]
Dose excreted in feces in the form of PMEA [11]: 43% | AUC0-12h of PMEA in plasma ([12]; fasted rats): 21.3 nmol·h/mL | Urinary levels of PMEA ([12]; rats, urine 48 hours after treatment): 20.6 % dose | Intact prodrug in plasma [13]: not detected | Half-life in human serum [14]: < 5 min | Oral bioavailability in monkeys [8]: 25% | Oral bioavailability in rats [15]: 38% | PMEA AUC (dose-normalized plasma), literature [16]: 10.9 | Oral bioavailability in humans [10]: 41%
